Data on two molecules can be found in PMC10302753, “Natural-Product-Inspired Microwave-Assisted Synthesis of Novel Spirooxindoles as Antileishmanial Agents: Synthesis, Stereochemical Assignment, Bioevaluation, SAR, and Molecular Docking Studies” (Molecules, 2023).

One data set has as its system LdTopIB. Details: method as in PMID 24433962, doi:10.1016/j.molstruc.2019.03.032, PMID 34311084, PMID 36444862. The conditions noted are these: Figure 2; cited from earlier work.
The subject of data set [1] is promastigotes and the amastigotes forms of Leishmania (L.) species. Details: method as in PMID 24433962, doi:10.1016/j.molstruc.2019.03.032, PMID 34311084, PMID 36444862. The following applies: Figure 2; cited from earlier work.

With `COC(=O)C1CC2CCCN2C12C(=O)N(Cc1ccccc1)c1ccccc12` (stereo not shown) [compound 15], the melting point (usually the temperature, or range, at which the solid turns liquid) lay within 138 to 140 °C. In addition, the IC50 – broadly, the point on the concentration scale where inhibition reaches its midpoint – with LdTopIB is 3.29 µM.
As to `O=C1NC(=O)C2(CC(c3ccccc3)N(Cc3ccccc3)C(c3ccccc3)C2)N1c1ccccc1` (stereo not shown) [compound 19], the melting point lay within 142 to 144 °C. The IC50 in data set [1] was 0.89 µM.
